≈ marks a conversion by molar mass, not a printed value. Read-outs that look alike come from different tables or passages of the source.
Columns and labels:
E. faecalis ATCC 29212 = test: MIC broth microdilution (NCCLS); assay type: cell-based, Enterococcus faecalis; settings: E. faecalis ATCC 29212
E. coli MC4100 = test: MIC broth microdilution (NCCLS); assay type: cell-based; settings: Escherichia coli; E. coli MC4100, pathotype Reference
Experimental: (§1) Minimal Inhibitory Concentration (MIC) Determination. Bacteria (primary strain panel, TABLE 1). Susceptibility tests were performed following the recommendations from the National Committee for Clinical Standards (NCCLS). The MICs were determined by a broth microdilution technique using a final volume of 100 μl of cation-adjusted Mueller Hinton Broth (MHBCA) and a bacterial inoculum of 10^5-10^6 Colony Forming Units (CFU)/ml. The inocula were verified and precisely determined by applying 10-μl drops of 10-fold dilutions onto Triptic Soy Agar plates. The CFU were counted after an incubation of 24 h at 35° C. Any experiment showing an inoculum that was more or less than 10^5-10^6 CFU/ml was rejected. Control antibiotics and test compounds were prepared at a concentration equivalent to 2-fold the highest desired final concentration. Compounds were then diluted directly in the 96-well microtiter plates by serial 2-fold dilutions using a multichannel pipette. Microtiter plates were incubated during 24 h at 35° C. and growth was recorded by using a microtiterplate reader at 650 nm as well as by visual observation. The MIC was defined as the lowest concentration of compound yielding no visible growth. […] Fastidious bacteria. The medium used for Listeria monocytogenes, Neisseria meningitidis, and Campylobacter jejuni was MHBCA containing 2% laked horse blood. The medium used for Haemophilus influenzae and Branhamella (Moraxella) catarrhalis was HTM as recommended by the NCCLS. Cultures of these fastidious bacteria were incubated at 35° C. in a 5% CO2 atmosphere. […] The medium used for Bacteroides fragilis was Wilkins Chalgren broth and growth was allowed under an anaerobic atmosphere at 35° C. for 48 hours.

E. coli Ec027c (EIEC) = test: MIC broth microdilution, E. coli strains; assay type: cell-based; settings: Escherichia coli, pathotype EIEC
Experimental: as §1
(§2) Finally, compounds were also tested against populations of various clinical strains (antibiotic resistant strain panel, TABLE 1).

E. coli Ec022c (EIEC) = test: MIC broth microdilution, E. coli strains; assay type: cell-based; settings: Escherichia coli, pathotype EIEC
Experimental: as §1, §2

E. coli Ec119c (EIEC) = test: MIC broth microdilution, E. coli strains; assay type: cell-based; settings: Escherichia coli, pathotype EIEC
Experimental: as §1, §2

[1] = test system: E. coli d4-OLR-pen10 (O157:H7); test: MIC broth microdilution, E. coli strains; assay type: cell-based; settings: Escherichia coli
Experimental: as §1, §2

E. coli Ec117c (EIEC) = test: MIC broth microdilution, E. coli strains; assay type: cell-based; settings: Escherichia coli, pathotype EIEC
Experimental: as §1, §2

[2] = test system: E. coli ATCC 35150 (O157:H7); test: MIC broth microdilution, E. coli strains; assay type: cell-based; settings: Escherichia coli, ATCC35150
Experimental: as §1, §2

E. coli Ec118c (EIEC) = test: MIC broth microdilution, E. coli strains; assay type: cell-based; settings: Escherichia coli, pathotype EIEC
Experimental: as §1, §2

[3] = test system: E. coli d25-ALR-pen14 (O157:H7); test: MIC broth microdilution, E. coli strains; assay type: cell-based; settings: Escherichia coli
Experimental: as §1, §2

E. coli ATCC 25922 = test: MIC broth microdilution (NCCLS); assay type: cell-based, Escherichia coli
[4] = test system: Y. enterocolytica ATCC 23715; test: MIC broth microdilution (NCCLS); assay type: cell-based, Yersinia enterocolytica; settings: Yersinia, ATCC23715, read-out: MIC
Summary of the method: (§3)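 Susceptibility by NCCLS microdilution: checked inoculum 10^5-10^6 CFU/ml, 24 h at 35° C, and growth assessed at 650 nm and by eye. Haemophilus was tested in HTM medium and Listeria with laked horse blood, each incubated under 5% CO2.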

[5] = test system: S. saprophyticus ATCC 15305; test: MIC broth microdilution (NCCLS); assay type: cell-based, Staphylococcus saprophyticus; settings: Staphylococcus saprophyticus, ATCC15305; S. saprophyticus ATCC 15305; read-out: MIC
Summary of the method: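 NCCLS broth microdilution; inoculum 10^5-10^6 CFU/ml; 2-fold serial dilutions; 35° C, 24 h; A650 plus visual read. Media: MHBCA (S. saprophyticus, E. faecium), MHBCA + 2% laked horse blood (Listeria), HTM (Haemophilus), the last two under 5% CO2.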

A. baumannii ATCC 19606 = test: MIC broth microdilution (NCCLS); assay type: cell-based, Acinetobacter baumannii; settings: Acinetobacter baumannii, ATCC19606, read-out: MIC
Summary of the method: as §3

MRSA strain Sa228c = test: MIC broth microdilution, antibiotic resistant strain panel; assay type: cell-based, Staphylococcus aureus; settings: Staphylococcus aureus; multi-resistant MRSA strain Sa228c; read-out: MIC
Summary of the method: (§4)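 MHBCA, 10^5-10^6 CFU/ml, 2-fold serial dilutions, 24 h at 35° C. Growth read at 650 nm and visually. MIC = lowest concentration with no visible growth.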

MRSA strain Sa212c = test: as above; assay type: cell-based, Staphylococcus aureus; settings: Staphylococcus aureus; multi-resistant MRSA strain Sa212c; read-out: MIC
Summary of the method: as §4

MRSA strain Sa211c = test: as above; assay type: cell-based, Staphylococcus aureus; settings: Staphylococcus aureus; multi-resistant MRSA strain Sa211c; read-out: MIC
Summary of the method: as §4

MRSA strain Sa234c = test: as above; assay type: cell-based, Staphylococcus aureus; settings: Staphylococcus aureus; multi-resistant MRSA strain Sa234c; read-out: MIC
Summary of the method: as §4

MRSA strain Sa224c = test: as above; assay type: cell-based, Staphylococcus aureus; settings: Staphylococcus aureus; multi-resistant MRSA strain Sa224c; read-out: MIC
Summary of the method: as §4

MRSA strain Sa253c = test: as above; assay type: cell-based, Staphylococcus aureus; settings: Staphylococcus aureus; multi-resistant MRSA strain Sa253c; read-out: MIC
Summary of the method: as §4

MRSA strain Sa249c = test: as above; assay type: cell-based, Staphylococcus aureus; settings: Staphylococcus aureus; multi-resistant MRSA strain Sa249c; read-out: MIC
Summary of the method: as §4

MRSA strain Sa220c = test: as above; assay type: cell-based, Staphylococcus aureus; settings: Staphylococcus aureus; multi-resistant MRSA strain Sa220c; read-out: MIC
Summary of the method: as §4

MRSA strain Sa248c = test: as above; assay type: cell-based, Staphylococcus aureus; settings: Staphylococcus aureus; multi-resistant MRSA strain Sa248c; read-out: MIC
Summary of the method: as §4

S. typhimurium ATCC14028 = test: MIC broth microdilution (NCCLS); assay type: cell-based, Salmonella typhimurium; settings: Salmonella enterica; S. typhimurium ATCC14028; read-out: MIC
Experimental: as §1

M. smegmatis ATCC 19420 = test: MIC broth microdilution (NCCLS), fastidious bacteria; assay type: cell-based, Mycobacterium smegmatis; settings: Mycolicibacterium smegmatis, ATCC19420, read after 48 hours
S. aureus ATCC 29213 = test: MIC broth microdilution (NCCLS); assay type: cell-based, Staphylococcus aureus; settings: Staphylococcus aureus, ATCC29213; S. aureus ATCC 29213; read-out: MIC
[6] = Enterococcus faecalis, ATCC29212, read-out: MIC
[7] = Escherichia coli, ATCC25922, E. coli ATCC 25922 (Reference), read-out: MIC

Row | SMILES | MIC (E. faecalis ATCC 29212; [6]) | MIC (E. coli MC4100) | MIC (E. coli Ec027c (EIEC)) | MIC (E. coli Ec022c (EIEC)) | MIC (E. coli Ec119c (EIEC)) | MIC [1] | MIC (E. coli Ec117c (EIEC)) | MIC [2] | MIC (E. coli Ec118c (EIEC)) | MIC [3] | MIC (E. coli ATCC 25922; [7]) | MIC [4] | MIC [5] | MIC (A. baumannii ATCC 19606) | MIC (MRSA strain Sa228c) | MIC (MRSA strain Sa212c) | MIC (MRSA strain Sa211c) | MIC (MRSA strain Sa234c) | MIC (MRSA strain Sa224c) | MIC (MRSA strain Sa253c) | further results
1 | O=C1CN(/N=C/c2ccc([N+](=O)[O-])o2)C(=O)N1 [Nitrofurantoin] | 8 to 16 µg/mL (≈ 33.6 to 67.2 µM) | 8 to 16 µg/mL (≈ 33.6 to 67.2 µM) | 16 µg/mL (≈ 67.2 µM) | 16 µg/mL (≈ 67.2 µM) | 16 µg/mL (≈ 67.2 µM) | 16 µg/mL (≈ 67.2 µM) | 8 to 16 µg/mL (≈ 33.6 to 67.2 µM) | 2 µg/mL (≈ 8.4 µM) | 16 µg/mL (≈ 67.2 µM) | 16 µg/mL (≈ 67.2 µM) | 8 µg/mL (≈ 33.6 µM) | 64 µg/mL (≈ 269 µM) | 8 µg/mL (≈ 33.6 µM) | 128 µg/mL (≈ 537 µM) | 16 to 32 µg/mL (≈ 67.2 to 134 µM) | 32 µg/mL (≈ 134 µM) | 16 to 32 µg/mL (≈ 67.2 to 134 µM) | 16 to 32 µg/mL (≈ 67.2 to 134 µM) | 16 µg/mL (≈ 67.2 µM) | 16 µg/mL (≈ 67.2 µM) | MIC (E. coli ATCC 25922; E. coli ATCC 25922 (Reference)): 8 to 16 µg/mL; MIC (MRSA strain Sa249c): 16 µg/mL (≈ 67.2 µM); MIC (MRSA strain Sa220c): 16 µg/mL (≈ 67.2 µM); MIC (MRSA strain Sa248c): 16 µg/mL (≈ 67.2 µM); MIC (S. typhimurium ATCC14028): 32 µg/mL (≈ 134 µM); MIC (M. smegmatis ATCC 19420): 64 µg/mL (≈ 269 µM); MIC (S. aureus ATCC 29213): 16 µg/mL (≈ 67.2 µM)
2 | O=[N+]([O-])c1ccc(C=Cc2nc(Nc3ccc(O)cc3)c3cc(F)ccc3n2)o1 [Compound V, 6-fluoro-2-[2-(5-nitro-2-furyl)vinyl]-4-(p-hydroxyanilino)-quinazoline] | 0.03 µg/mL (≈ 0.0765 µM) | 1 µg/mL (≈ 2.55 µM) | 1 µg/mL (≈ 2.55 µM) | 1 µg/mL (≈ 2.55 µM) | 2 µg/mL (≈ 5.1 µM) | 1 µg/mL (≈ 2.55 µM) | 1 µg/mL (≈ 2.55 µM) | 1 µg/mL (≈ 2.55 µM) | 1 µg/mL (≈ 2.55 µM) | 1 µg/mL (≈ 2.55 µM) | 0.5 µg/mL (≈ 1.27 µM) | 0.25 µg/mL (≈ 0.637 µM) | 0.015 to 0.03 µg/mL (≈ 0.0382 to 0.0765 µM) | 1 to 2 µg/mL (≈ 2.55 to 5.1 µM) | ≤ 0.06 µg/mL | 0.125 µg/mL (≈ 0.319 µM) | ≤ 0.06 µg/mL | ≤ 0.06 µg/mL | ≤ 0.06 µg/mL | ≤ 0.06 µg/mL | MIC (E. faecalis ATCC 29212; listed as Example I compound V): 0.03 µg/mL (≈ 0.0765 µM); MIC (E. coli ATCC 25922; E. coli ATCC 25922 (Reference), listed as Example I compound V): 0.5 µg/mL (≈ 1.27 µM); MIC (MRSA strain Sa249c): ≤ 0.06 µg/mL; MIC (MRSA strain Sa220c): ≤ 0.06 µg/mL; MIC (MRSA strain Sa248c): ≤ 0.06 µg/mL; MIC (S. typhimurium ATCC14028): 1 µg/mL (≈ 2.55 µM); MIC (M. smegmatis ATCC 19420): 0.06 µg/mL (≈ 0.153 µM); MIC (S. aureus ATCC 29213): 0.03 to 0.06 µg/mL (≈ 0.0765 to 0.153 µM)

Reference: US7410974B2, “Halogenated Quinazolinyl nitrofurans as antibacterial agents” (Ulysses Pharmaceutical Products, Inc., priority 2003, dated 2008)
